Laboratory results taken from article PMC4750079, “Tackling amyloidogenesis in Alzheimer’s disease with A2V variants of Amyloid-β” (Scientific Reports, 2016).
Where a SMILES comes first, the peptide text is derived from it. [ ]: non-standard residue; d: D form.

Tested on: APPswe/PS1dE9 mice
Test: Serum IgG against Aβ peptides after chronic treatment (ELISA)
Format: in vivo, mouse
Conditions: once a week for 5 months, n = 9
Procedure: Figure 8 Serum levels of IgG against Aβ peptides after chronic treatment with Aβ1-6A2VTAT(D). To verify whether Aβ1-6A2VTAT(D) administration once a week for 5 months was associated with an immune response, we collected blood from mice before (T0) and at the end of the treatment (T2). Sera from saline (n = 8) and Aβ1-6A2VTAT(D) (n = 9) treated mice were tested induplicate using ELISA for the presence of IgG against Aβ1-6A2VTAT(D) (A), the full-length Aβ1-42 (B), Aβ1-6A2V (C) and TAT(D) (D).
Sera were collected from mice before (T0) and at the end of the treatment (5 months), and tested using ELISA for the presence of IgG against Aβ1-6A2VTAT(D), the full-length Aβ1-42, Aβ1-6A2V(D) and TAT(D) following previously described protocols for antigen-specific mouse IgG detection, except blocking buffer that was PBS 3% milk. Anti-Aβ1-42 IgG antibodies from 6E10 IgG clone (Covance), and sera from mice immunized with Aβ1-6A2VTAT(D) or with Aβ1-6A2V emulsified in Complete Freund’s adjuvant were used as positive controls.

Compound: CC(C)[C@@H](NC(=O)[C@H](N)CC(=O)O)C(=O)N[C@H](CCC(=O)O)C(=O)N[C@H](Cc1ccccc1)C(=O)N[C@H](CCCNC(=N)N)C(=O)N[C@H](Cc1c[nH]cn1)C(=O)NCC(=O)NCC(=O)NCC(=O)NCC(=O)NCC(=O)N[C@H](CCCNC(=N)N)C(=O)N[C@H](CCCCN)C(=O)N[C@H](CCCCN)C(=O)N[C@H](CCCNC(=N)N)C(=O)N[C@H](CCCNC(=N)N)C(=O)N[C@H](CCC(N)=O)C(=O)N[C@H](CCCNC(=N)N)C(=O)N[C@H](CCCNC(=N)N)C(=O)N[C@H](CCCNC(=N)N)C(=O)O [Aβ1-6A2VTAT(D)] (H-[dD][dV][dE][dF][dR][dH]GGGGG[dR][dK][dK][dR][dR][dQ][dR][dR][dR]-OH; N-terminus assumed)
- serum IgG against Aβ1-6A2V peptide: did not induce production of IgG
- serum IgG against Aβ1-6A2VTAT(D): not negligible levels
- serum IgG against TAT(D): 3 out of 9 mice displayed slightly increased levels
- serum IgG against full-length Aβ: not negligible levels
